Experimental data as given in publication PMC6206036, “Locking loop movement in the ubiquinone pocket of complex I disengages the proton pumps” (Nature Communications, 2018).
Where two headings read alike, the source gives them in different places.

Columns and labels:
[1] = target: T1, Complex I (proton-pumping NADH:ubiquinone oxidoreductase) (Yarrowia lipolytica, UniProt Q9B6C7+Q9B6E8+Q9UUT7+Q9UUU1); test: dNADH:DBQ oxidoreductase activity at […] nm, mitochondrial membranes; format: biochemical; conditions: 100 µM dNADH, DBQ 0-100 µM, pH 8.5, 25 °C; membranes preincubated with 5 mM DTT for 5 min (ND3-PSST disulfide reduced); read-out: K M ^d /
T1 construct: gene nucm; native complete respiratory complex I in unsealed mitochondrial membranes; nugm-Htg2 (tagged NUGM) strain background; NUKM expressed from replicative plasmid pUB4 under endogenous promoter; 14 central plus accessory subunits; with NADH-ubiquinone oxidoreductase 51 kDa subunit, mitochondrial

[2] = target: T1, Complex I (proton-pumping NADH:ubiquinone oxidoreductase); test: inhibition of dNADH:DBQ oxidoreductase activity, mitochondrial membranes; format: biochemical
Description: inhibition of dNADH:DBQ oxidoreductase activity, mitochondrial membranes on Complex I (proton-pumping NADH:ubiquinone oxidoreductase)

[3] = substrate: CCCCCCCCCCC1=C(C)C(=O)C(OC)=C(OC)C1=O; test: cells, lysate or membranes; format: biochemical, Yarrowia lipolytica; conditions: 100 µM dNADH, DBQ 0-100 µM, pH 8.5, 25 °C, membranes preincubated with 5 mM DTT for 5 min

**Q.** `CCCCCCCCCCC1=C(C)C(=O)C(OC)=C(OC)C1=O` [DBQ, decylubiquinone] was tested. Which Km [1] did it give?
**A.** 19 ± 3 µM

**Q.** `C=C(C)[C@H]1Cc2c(ccc3c2O[C@@H]2COc4cc(OC)c(OC)cc4[C@@H]2C3=O)O1` [rotenone] was tested. Which IC50 ([2]; read-out: IC50^e / Rotenone /) did it give?
**A.** 560 ± 55 nM

**Q.** For `CCCCCCCCCCc1nc(N)c2ccccc2n1` [DQA, 2-n-decyl-quinazolin-4-yl-amine], which IC50 ([2]; 100 µM dNADH, 100 µM DBQ, pH 8.5, 25 °C, membranes preincubated with 5 mM DTT for 5 min (ND3-PSST disulfide reduced)) is on record?
**A.** 13 ± 3 nM

**Q.** What about the IC50 ([2]; 100 µM dNADH, 100 µM DBQ, pH 8.5, 25 °C, membranes preincubated with 5 mM DTT for 5 min, read-out: IC50^e / DQA /) of the same molecule?
**A.** 16 ± 3 nM

B1: Complex I (proton-pumping NADH:ubiquinone oxidoreductase) (Yarrowia lipolytica CLIB122) (protein)
chain 1: MATTALPQDPIPSGALGQKVPHVDESHQDLLFRTSHMVEDLETYDEDSPINTSDANTRIRAFTINFGPQHPAAHGVLRLILELSGEEIIRSDPHVGLLHRGTEKLIEYKTYMQALPYFDRLDYVSMMTNEQVFSLAVEKLLNVEVPLRGKYIRTMFGEITRVLNHLMSVCSHAMDVGALTPFLWGFEEREKLMEFYERVSGARLHAAYVRPGGVSQDLPAGLLDDIYMWATQFGDRLDEIEELLTDNRIWKLRTVNIGTVTAQDALNLGLSGPMLRGSGIPFDIRKNAPYDAYDKVDFDVPVGMNGDCYDRYLIRMAEFRQSLRIIEQCCNDMPAGAVKVEDFKINSPPRNLMKEDMEALIHHFLLYTKGYSVPPGETYTAIEAPKGEMGVYVVSDGSERPYKCKIRAPGFAHLGAFDHIARGHFLPDAVAIIGTMDLVFGEVDR
chain 2: SAPAGTPRVSSSSMPTDFPLPSQQKPNSAVDYTLTTLDAVANWARQGSFWPVTFGLACCAVEMMHVSAPRYDQDRLGIIFRASPRQSDIMIVAGTLTNKMAPVLRQVYDQMPEPRWVISMGSCANGGGYYHFSYSVVRGCDRIVPVDVYVPGCPPTSEALMYGVFQLQRKMRNTKITRMWYRK
chain 3: MIINIVEILIFLVCVLFSVAYLTVAERKTLAYMQRRLGPNFVGYYGLLQAFADAVKLLLKEIVLPKESNYIILVISPLITLITALIGWVVIPLGPGITLGELNLGILFSLAIGSLGVFGSLLSGWSSNSKYSLLGSIRSTAQLISYELILTSIFIIIIMFVSSLNITTIIETQRVVWYCIPLLPLLLIFFIASVAETARPPFDLTESESELVAGYFTEYSGSPFVFFFLAEYSNIILISAFNGYLLLGGYLSFNYSYLFNILFNDYSYVSFLFEGLINSSAYAIKLVFLMFSFIWVRAAFPRFTYDNLINFCWIILLPLLFGIFLIIPSTLYIFDSFPTLI
chain 4: MNTFIIFIILIPIVGFALLAVNILLAVYKPYNEKLGAFECGLTSFNQTRLAFNAAFILVAILFLPFDLEISTLLPYVMSIYLVSNYGFTIVLLFLLILIIGFVYEINTNALKINKHNKPNTDSLIYKL
notes: native complete respiratory complex I in unsealed mitochondrial membranes; nugm-Htg2 (tagged NUGM) strain background; NUKM expressed from replicative plasmid pUB4 under endogenous promoter; 14 central plus accessory subunits; with NADH-ubiquinone oxidoreductase 51 kDa subunit, mitochondrial
**Q.** B1 was tested. Which Km [3] did it give?
**A.** 17 ± 3 µM

**Q.** What about the Vmax [3] of the same molecule?
**A.** 0.16 µmol/min/mg
